Data reported in patent publication US4517311A, “2'-Substituted-spiro[benzofuran-2(3H),1'-cycloalkanes] and their analgesic and anti-depressant compositions” (Hoechst-Roussel Pharmaceuticals Inc., priority 1982, dated 1985).
Counter-ions that a name gives are not always drawn. Like-named read-outs stand apart in the source and are kept apart here.

Experiments:
[1] = system: tetrabenazine-induced depression in mice; assay: Antidepressant activity (inhibition of tetrabenazine induced ptosis / tetrabenazine-induced depression); format: in vivo; details: for ED50: Mus musculus
Protocol: (§1) The antidepressant and analgesic activities of various spiro compounds having the formula [drawing 32] where X is hydrogen, chlorine or bromine and m is 1 or 2, taken as representative of a lower class of compounds having the formula I are presented in Table 1. The data presented therein were determined in accordance with the above described procedures.
1. Antidepressant activity (as measured by inhibition of
tetrabenazine induced ptosis).
3. Anti-depressant activity (as measured by inhibition
tetrabenazine induced ptosis)

[2] = system: phenylquinone writhing in mice; assay: Analgesic activity (phenylquinone writhing test); format: in vivo, male, CD-1 mice; details: for ED50: Mus musculus, sc, Table 1 part 2, estimated by computer linear regression analysis; for % Inhibition (analgesic activities, phenylquinone writhing test): 20 mg/kg, subcutaneously (sc), Table 1 part 4
Protocol: This produces a characteristic "writhe" which is defined as an inward rotation of one or more feet with twisting and turning of the trunk, drawing in of the abdominal wall, lordosis and arching of the back.
A total of 28 male, CD-1 mice (18 to 30 grams) are employed for a time response. Animals receive food and water ad libitum. Drugs to be tested are prepared with distilled water, and if insoluble, one drop of a suitable surfactant is added.
Twenty animals (5/group) are administered the drug subcutaneously (sc) 15, 30, 45 and 60 minutes prior to phenylquinone injection. Control animals (2/group) receive an equal amount of vehicle. After the administration of phenylquinone, the mice are placed separately into one-liter beakers and 5 minutes are allowed to elapse. The mice are then observed for a period of 10 minutes and the number of writhes are recorded for each animal. The formula for computing percent inhibition is: [formula]
The time period with the greatest percent of inhibition is considered the peak time.
A dose range is run in the same fashion as a time response except ten animals per group are tested at the peak time of drug activity. Fifty animals, four drug groups, and a vehicle control are employed. Animals are dosed and tested in a randomized manner. An estimated ED50 is calculated by a computer linear regression analysis.
as §1
2. Analgesic activities (as measured in the
phenylquinone writhing test).

[3] = po, Table 1 part 1, read-out: ED50 (antidepressant activity, inhibition of tetrabenazine induced ptosis)

SMILES | ED50 [1, 3] [mg/kg] | further results
CN(C)C[C@@H]1CCCC[C@]12Cc1c(Cl)cccc1O2 (relative stereo) [4-chloro Me trans 1, (1'α2'β)-2'-Dimethylaminomethylspiro[4-chlorobenzofuran-2(3H),1'-cyclohexane]Hydrochloride] | 5.7 | –
CN(C)C[C@@H]1CCCC[C@@]12Cc1cc(Cl)c(Cl)cc1O2 (relative stereo) [5,6-dichloro Me cis 1, (1'β,2'β)-2'-Dimethylaminomethylspiro[5,6-dichlorobenzofuran-2(3H),1'-cyclohexane]Hydrochloride] | 3.46 | –
CN(C)C[C@@H]1CCCC[C@@]12Cc1cc(Br)ccc1O2 (relative stereo) [5-bromo Me cis 1, (1'β,2'β)-2'-Dimethylaminomethylspiro[5-bromobenzofuran-2(3H),1'-cyclohexane]Hydrochloride] | 4.73 | –
CCN(CC)C[C@@H]1CCCC[C@@]12Cc1cc(Cl)ccc1O2 (relative stereo) [5-chloro Et cis 1, (1'β,2'β)-2'-Diethylaminomethylspiro[5-chlorobenzofuran-2(3H),1'-cyclohexane]Hydrochloride] | 4.73 | –
CN(C)C[C@@H]1CCCC[C@@]12Cc1cc(Cl)ccc1O2 (relative stereo) [5-chloro Me cis 1, (1'β,2'β)-2'-Dimethylaminomethylspiro[5-chlorobenzofuran-2(3H),1'-cyclohexane]Hydrochloride] | 1.5 | ED50 [2]: 4.96 mg/kg
CN(C)C[C@@H]1CCCC[C@]12Cc1cc(Cl)ccc1O2 (relative stereo) [5-chloro Me trans 1, (1'α,2'β)-2'-Dimethylaminomethylspiro[5-chlorobenzofuran-2(3H),1'-cyclohexane]Hydrochloride] | 1.39 | –
CN(C)C[C@@H]1CCCC[C@]12Cc1ccc(Cl)cc1O2 (relative stereo) [6-chloro Me trans 1, (1'α,1'β)-2'-Dimethylaminomethylspiro[6-chlorobenzofuran-2(3H),1'-cyclohexane]Hydrochloride] | 0.42 | –
CN(C)C[C@@H]1CCC[C@@]12Cc1cc(Br)ccc1O2 (relative stereo) [(1'β,2'β)-2'-dimethylaminomethylspiro[5-bromobenzofuran-2(3H),1'-cyclopentane]hydrochloride] | – | % Inhibition (analgesic activities, phenylquinone writhing test) [2]: 53%; ED50 ([1]; (po) [orally], Table 1 part 3, read-out: 50% Inhibition (ED50), anti-depressant activity, inhibition of tetrabenazine induced ptosis): 17.3 mg/kg
CN(C)C[C@@H]1CCC[C@@]12Cc1cc(Cl)ccc1O2 (relative stereo) [(1'β,2'β)-2'-dimethylaminomethylspiro[5-chlorobenzofuran-2(3H),1'-cyclopentane]hydrochloride] | – | % Inhibition (analgesic activities, phenylquinone writhing test) [2]: 40%
CN(C)C[C@@H]1CCC[C@@]12Cc1ccccc1O2 (relative stereo) [(1'β,2'β)-2'-dimethylaminomethylspiro[benzofuran-2(3H),1'-cyclopentane]hydrochloride] | – | % Inhibition (analgesic activities, phenylquinone writhing test) [2]: 37%; % Inhibition (anti-depressant activity, inhibition of tetrabenazine induced ptosis) ([1]; 20 mg/kg intraperitoneal, Table 1 part 3): 53%
CN(C)C[C@@H]1CCCC[C@@]12Cc1ccccc1O2 (relative stereo) [H Me cis 1, (1'β,2'β)-2'-Dimethylaminomethylspiro[benzofuran-2(3H),1'-cyclohexane]Hydrochloride] | – | ED50 [2]: 5.98 mg/kg
CN(C)C[C@@H]1CCCC[C@]12Cc1ccccc1O2 (relative stereo) [H Me trans 1, (1'β,2'β)-2'-Dimethylaminomethylspiro[benzofuran-2(3H),1'-cyclohexane]Hydrochloride] | 3 | ED50 [2]: 2.9 mg/kg
